Converted amounts (≈) assume the structure as drawn. Read-outs that look alike come from different tables or passages of the source. Where a SMILES comes first, the peptide text is derived from it.
What was measured:
Experiment in all cases: microbe, parasite or virus in culture
Format in all cases: cell-based, Escherichia coli
[1] = test system: E. coli K-12 MG1655; details: for MIC: Escherichia coli; for MIC of MG1655 under the pressure of the same drug, generation primary: broth microdilution (CLSI), primary MG1655 before passage; for MIC of MG1655 under the pressure of the same drug, generation 10: broth microdilution, line passaged in MH broth with sub-inhibitory drug, 12 h per passage, 37℃
Experimental: (§1) The broth microdilution method was used to measure the MIC values of antibiotics and peptides according to the Clinical and Laboratory Standards Institute guidelines. The MIC value is defined as the lowest drug concentration without visible bacteria.
Eight antibiotics and ten AMPs at the sub-inhibitory concentration were prepared. A 300-µL system, including 260 µL of MH broth, 30 µL of prepared drug, and 10 µL of bacterial culture, was used for resistance passages. After 12 h of incubation at 37℃ and 200 rpm, 10 µL of the above bacterial culture was added into the new sterile drug-containing broth. MIC values of bacterial culture were determined. The drug concentration was adjusted according to the MIC value change until the end of the 120 passages.

[2] = test system: AMP120 (evolved MG1655); details: broth microdilution, ampicillin-evolved strain
Description: (§2) To ensure the stable resistance evolution and inheritance of MG1655 under different drugs, we randomly selected three monoclonals from the evolved strains. The final antibiotic-evolved strains were designated as AMP120, AZI120, CHL80, CIP120, DOX120, KAN80, NIT70, and TMP30, while the final AMP-evolved strains were named COL120, Ind120, Omi120, Pex120, PGLA120, Pleu120, R8120, SAAP120, LI120, and SLAP120.
as §1

[3] = test system: AZI120 (evolved MG1655); details: broth microdilution, azithromycin-evolved strain
Description: as §2, §1

[4] = test system: CHL80 (evolved MG1655); details: broth microdilution, chloramphenicol-evolved strain
Description: as §2, §1

[5] = test system: CIP120 (evolved MG1655); details: broth microdilution, ciprofloxacin-evolved strain
Description: as §2, §1

[6] = test system: COL120 (evolved MG1655)
Description: as §2, §1

[7] = test system: DOX120 (evolved MG1655); details: broth microdilution, doxycycline-evolved strain
Description: as §2, §1

[8] = test system: KAN80 (evolved MG1655); details: broth microdilution, kanamycin-evolved strain
Description: as §2, §1

[9] = test system: NIT70 (evolved MG1655); details: broth microdilution, nitrofurantoin-evolved strain
Description: as §2, §1

[10] = test system: TMP30 (evolved MG1655); details: broth microdilution, trimethoprim-evolved strain
Description: as §2, §1

[11] = broth microdilution, colistin-evolved strain

## CC[C@H]1OC(=O)[C@H](C)[C@@H](O[C@H]2C[C@@](C)(OC)[C@@H](O)[C@H](C)O2)[C@H](C)[C@@H](O[C@@H]2O[C@H](C)C[C@H](N(C)C)[C@H]2O)[C@](C)(O)C[C@@H](C)CN(C)[C@H](C)[C@@H](O)[C@]1(C)O [AZI, Azithromycin]
[1]; MG1655, 12 h, read-out: MIC of MG1655 under the pressure of the same drug, generation 10
  MIC: 2 µg/mL
[1]; MG1655, read-out: MIC of MG1655 under the pressure of the same drug, generation primary
  MIC: 2 µg/mL
[1]; MG1655, as E2, generation 20, read-out: MIC of MG1655 under the pressure of the same drug, generation 20
  MIC: 2 µg/mL
[1]; MG1655, as E2, generation 30, read-out: MIC of MG1655 under the pressure of the same drug, generation 30
  MIC: 2 µg/mL
[1]; MG1655, as E2, generation 40, read-out: MIC of MG1655 under the pressure of the same drug, generation 40
  MIC: 2 µg/mL
[1]; MG1655, as E2, generation 50, read-out: MIC of MG1655 under the pressure of the same drug, generation 50
  MIC: 4 µg/mL
[1]; MG1655, as E2, generation 60, read-out: MIC of MG1655 under the pressure of the same drug, generation 60
  MIC: 4 µg/mL
[1]; MG1655, as E2, generation 70, read-out: MIC of MG1655 under the pressure of the same drug, generation 70
  MIC: 4 µg/mL
[1]; MG1655, as E2, generation 80, read-out: MIC of MG1655 under the pressure of the same drug, generation 80
  MIC: 4 µg/mL
[1]; MG1655, as E2, generation 90, read-out: MIC of MG1655 under the pressure of the same drug, generation 90
  MIC: 4 µg/mL
[1]; MG1655, as E2, generation 100, read-out: MIC of MG1655 under the pressure of the same drug, generation 100
  MIC: 4 µg/mL
[1]; MG1655, as E2, generation 110, read-out: MIC of MG1655 under the pressure of the same drug, generation 110
  MIC: 8 µg/mL
[1]; MG1655, as E2, generation 120, read-out: MIC of MG1655 under the pressure of the same drug, generation 120
  MIC: 16 µg/mL
[2]; Escherichia coli, MG1655
  MIC: 1 µg/mL (≈ 1.34 µM)
[3]; Escherichia coli, MG1655
  MIC: 16 µg/mL (≈ 21.4 µM)
[4]; Escherichia coli, MG1655
  MIC: 2 µg/mL (≈ 2.67 µM)
[5]; Escherichia coli
  MIC: 4 µg/mL (≈ 5.34 µM)
[6]; Escherichia coli, MG1655, broth microdilution, colistin-evolved strain
  MIC: 0.5 µg/mL (≈ 0.668 µM)
[6]; MIC of COL120 compared with MG1655
  collateral sensitivity of COL120 (fold change of MIC vs wild-type MG1655): exceeding fourfold
[7]; Escherichia coli, MG1655
  MIC: 2 µg/mL (≈ 2.67 µM)
[8]; Escherichia coli, MG1655
  MIC: 2 µg/mL (≈ 2.67 µM)
[9]; Escherichia coli, MG1655
  MIC: 4 µg/mL (≈ 5.34 µM)
[10]; Escherichia coli, MG1655
  MIC: 16 µg/mL (≈ 21.4 µM)

## CC(C)C[C@H](NC(=O)[C@H](CCCCN)NC(=O)[C@H](Cc1ccccc1)NC(=O)[C@@H](NC(=O)[C@H](CCCCN)NC(=O)CNC(=O)[C@H](CC(C)C)NC(=O)[C@@H](N)Cc1ccccc1)C(C)C)C(=O)N[C@@H](C)C(=O)N[C@@H](CO)C(=O)N[C@@H](CCCCN)C(=O)N[C@H](C(=O)N[C@@H](Cc1ccccc1)C(=O)N[C@@H](CCCCN)C(=O)N[C@@H](C)C(=O)N[C@H](C(=O)N[C@@H](Cc1ccccc1)C(=O)NCC(=O)N[C@@H](CCCCN)C(=O)N[C@H](C(=O)O)C(C)C)C(C)C)C(C)C [R8] (H-FLGKVFKLASKVFKAVFGKV-OH)
[1]; as E2, generation 20
  MIC of MG1655 under the pressure of the same drug, generation 20: 4 µg/mL
[1]; as E2, generation 30
  MIC of MG1655 under the pressure of the same drug, generation 30: 4 µg/mL
[1]; as E2, generation 40
  MIC of MG1655 under the pressure of the same drug, generation 40: 4 µg/mL
[1]; as E2, generation 50
  MIC of MG1655 under the pressure of the same drug, generation 50: 4 µg/mL
[1]; as E2, generation 60
  MIC of MG1655 under the pressure of the same drug, generation 60: 4 µg/mL
[1]; as E2, generation 70
  MIC of MG1655 under the pressure of the same drug, generation 70: 4 µg/mL
[1]; as E2, generation 80
  MIC of MG1655 under the pressure of the same drug, generation 80: 4 µg/mL
[1]; as E2, generation 90
  MIC of MG1655 under the pressure of the same drug, generation 90: 4 µg/mL
[1]; as E2, generation 100
  MIC of MG1655 under the pressure of the same drug, generation 100: 4 µg/mL
[1]; as E2, generation 110
  MIC of MG1655 under the pressure of the same drug, generation 110: 8 µg/mL
[1]; as E2, generation 120
  MIC of MG1655 under the pressure of the same drug, generation 120: 8 µg/mL
[1]
  MIC of MG1655 under the pressure of the same drug, generation primary: 4 µg/mL
  MIC of MG1655 under the pressure of the same drug, generation 10: 4 µg/mL
[2]
  MIC values of evolved MG1655, strain AMP120: 4 µg/mL
[3]
  MIC values of evolved MG1655, strain AZI120: 8 µg/mL
[4]
  MIC values of evolved MG1655, strain CHL80: 8 µg/mL
[5]
  MIC values of evolved MG1655, strain CIP120: 8 µg/mL
[6]; [11]
  MIC values of evolved MG1655, strain COL120: 4 µg/mL
[7]
  MIC values of evolved MG1655, strain DOX120: 8 µg/mL
[8]
  MIC values of evolved MG1655, strain KAN80: 4 µg/mL
[9]
  MIC values of evolved MG1655, strain NIT70: 8 µg/mL
[10]
  MIC values of evolved MG1655, strain TMP30: 8 µg/mL

## NC[C@H]1O[C@H](O[C@H]2[C@H](O)[C@@H](O[C@H]3O[C@H](CO)[C@@H](O)[C@H](N)[C@H]3O)[C@H](N)C[C@@H]2N)[C@H](O)[C@@H](O)[C@@H]1O [KAN, Kanamycin]
[1]; MG1655, sub-inhibitory drug in MH broth over 60 days, final vs primary MIC
  increase in MIC values after experimental evolution: 256 fold
[1]; as E2, generation 20
  MIC of MG1655 under the pressure of the same drug, generation 20: 32 µg/mL
[1]; as E2, generation 30
  MIC of MG1655 under the pressure of the same drug, generation 30: 64 µg/mL
[1]; as E2, generation 40
  MIC of MG1655 under the pressure of the same drug, generation 40: 64 µg/mL
[1]; as E2, generation 50
  MIC of MG1655 under the pressure of the same drug, generation 50: 128 µg/mL
[1]; as E2, generation 60
  MIC of MG1655 under the pressure of the same drug, generation 60: 256 µg/mL
[1]; as E2, generation 70
  MIC of MG1655 under the pressure of the same drug, generation 70: 256 µg/mL
[1]; as E2, generation 80
  MIC of MG1655 under the pressure of the same drug, generation 80: 512 µg/mL
[1]
  MIC of MG1655 under the pressure of the same drug, generation primary: 2 µg/mL
  MIC of MG1655 under the pressure of the same drug, generation 10: 16 µg/mL
[2]
  MIC values of evolved MG1655, strain AMP120: 1 µg/mL
[3]
  MIC values of evolved MG1655, strain AZI120: 4 µg/mL
[4]
  MIC values of evolved MG1655, strain CHL80: 2 µg/mL
[5]
  MIC values of evolved MG1655, strain CIP120: 4 µg/mL
[6]; [11]
  MIC values of evolved MG1655, strain COL120: 4 µg/mL
[7]
  MIC values of evolved MG1655, strain DOX120: 2 µg/mL
[8]
  MIC values of evolved MG1655, strain KAN80: 512 µg/mL
[9]
  MIC values of evolved MG1655, strain NIT70: 4 µg/mL
[10]
  MIC values of evolved MG1655, strain TMP30: 4 µg/mL

Source: article PMC11915801, “Evolutionary trajectory of bacterial resistance to antibiotics and antimicrobial peptides in Escherichia coli” (mSystems, 2025)
